Measured values from patent US8633177B2, “Nitroxyl (HNO) releasing compounds and uses thereof in treating diseases” (The United States of America, as represented by the …, priority 2010, dated 2014).
Like-named read-outs stand apart in the source and are kept apart here.

Tests used:
[1] = test system: A549 cells; assay: Intracellular NO/HNO by DAF-FM diacetate in A549 cells; assay type: cell-based
Method: The intracellular NO and HNO were determined by using 4-amino-5-methylamino-2′,7′-difluorofluorescein diacetate (DAF-FM diacetate) as the reporter molecule. Cells were plated at a concentration of 30,000 cells per well in a 96 cell plate and grown overnight. Then DAF-FM diacetate in DMSO was added to each well with a final concentration of 10 μM and incubated for 30 min. Each well was washed three times with PBS pH 7.4. The desired compound was then added and the fluorescence was measured at an excitation of 485 nm and emission of 535 nm using PerkinElmer HTS 7000 plate reader.
Both NO and HNO increased the fluorescence of DAF. The NO/HNO release profiles for compounds 4 and 8 within A549 cells were determined by loading the cells with DAF-FM diacetate, a cell permeable dye, which is cleaved by esterase to form DAF-FM and reacts with NO to form benzotriazole derivative with an excitation of 495 nm and emission of 515 nm (Kojima et al., Chemical & Pharm. Bulletin, 462 373-75 (1998)). […] Both 4 and 8 show temporal release in the presence and absence of cells. […] Moreover, when DAF-FM diacetate is present both inside and outside the cells, the fluorescence intensity is ten times higher than that without cells.

[2] = test system: MCF-7 cells; assay: MTT cell survival, MCF-7; assay type: cell-based, human; details: MTT assay
Method: MDA-MB-231, MCF-7 and MDA-MB-468, human breast carcinoma cell lines and MCF-10A, breast […] (American Type Culture Collection, Manassas, Va.) were grown as monolayers in RPMI 1640 supplemented with 10% FCS (Hyclone), penicillin (50 units/ml), streptomycin ([…]; Life Technologies, Inc., Grand Island, N.Y.) and endothelial growth media (Lonanza) respectively. Cells were seeded at a density of 1×10^6 cells/100-cm^2 culture dish and incubated at 37° C. in 5% CO2 and 80% relative humidity. Single-cell suspensions were obtained by trypsinization (0.05% trypsin/EDTA), and cells were counted using a Beckman cell counter.
1000× stock solutions aspirin, of a DEA/NO-ASA, and IPA/NO-ASA were made in DMSO and final concentration in the media or PBS was adjusted to 0.1% DMSO.
The effect of NONO-aspirin on cell proliferation was studied using an MTT assay. The effect of DEA/NO-ASA, IPA/NO-ASA, aspirin, IPA/NO and DEA/NO was measured using the MTT assay. Cells were plated at a concentration of 8,000-10,000 cells per well in a 96 well plate and grown overnight. Cells were treated with different concentrations of the compounds and controls for 48 h. After 48 h, a solution of 5 mg/ml MTT was added to each well and incubated for 1 h. Then the media was removed from each well and 100 uL DMSO was added to each well and the absorbance was read at 550 nm. […]

[3] = test system: caspase-3; assay: Caspase-3 fluorescence assay, MDA-MB-231; assay type: cell-based, human; details: 12 h
Method: (§1) The caspase-3 activity in the presence of IPA/NO-ASA and DEA/NO-ASA was measured using caspase-3 fluorescence assay kit (Cat No. 10009135, Cayman Chemical). Cells were plated at a concentration of 50,000 cells per well in a 96 well plate and grown overnight. Then the cells were treated with different concentrations of the compounds and controls for 12 h. After 12 h, the plate was centrifuged at 800 g and the media was removed by aspiration. 100 μL of lysis buffer was added to each well and the plate was incubated for […] at room temperature. 100 μL of a caspase-3 substrate solution was added to each well and incubated for 30 min after which the fluorescence was read at excitation of 485 nm and emission of 535 nm.

[4] = test system: caspase-3; assay: Caspase-3 fluorescence assay, MCF-7; assay type: cell-based, human; details: 12 h
Method: as §1

[5] = test system: HUVEC cells; assay: Tube formation (angiogenesis) on Matrigel; assay type: cell-based; details: 12 h, even at 1 μM, compared to control
Method: To determine the effect of NO and HNO releasing aspirin on angiogenesis, HUVEC cells were treated with the compounds and tube formation was studied after 12 h. Matrigel (50 μL) was added to each well in a 96 well plate and incubated for 2 h at 37° C. Cell suspension treated with different concentrations of IPA/NO-aspirin, DEA/NO-aspirin and controls was added to each well at a concentration of 20,000 cells per well. After 12 hours, tube formation was measured using a microscope.

[6] = test system: MB-231 cells stably transfected with green fluorescent protein (GFP); assay: Tumor size in nude mice implanted with MB-231-GFP cells; assay type: in vivo; details: daily injection for 5 weeks, equi-molar dosages, compared to control
Method: 40 Nude mice were implanted with 7.5E5 MB-231 cells stably transfected with green fluorescent protein (GFP) per animal and allowed to grow for 14 days. The animals were randomly divided into four groups: untreated as a control, aspirin treated, IPA/NO-aspirin and DEA/NO-aspirin. Treated groups were injected daily with equi-molar dosages of the corresponding compounds (DEA/NO-aspirin=16.25 mg/Kg, IPA/NO-aspirin=15.75 mg/Kg, Aspirin=9 mg/Kg) for the next 5 weeks daily and the tumor size was measured using in vivo fluorescent imaging for quantification of the GFP tag (FIG. 9A (mammary tumor) and FIG. 9B (brain tumor)). The animals were then sacrificed to assess their brain for metastasis.

[7] = molecular target: T1, glyceraldehyde-3-phosphate dehydrogenase (GAPDH) (Homo sapiens, UniProt P04406); assay: GAPDH activity, MDA-MB-468; assay type: cell-based; design: endogenous in cells; host or cells: MDA-MB-468; details: MDA-MB-468, 100 μM
Method: (§2) Cells were plated at a concentration of 30,000 cells per well and grown overnight. Cells were treated with 100 μM IPA/NO-aspirin and DEA/NO-aspirin for 1, 3, and 6 h after which 200 μL of KDalert lysis buffer was added to each well. The plate was incubated at 4° C. for 20 min to lyse the cells. 10 μL of cell lysate was transferred to a clean 96 well plate and 90 μL of KDalert mastermix was added to each well and the fluorescence was measured at excitation of 540 nm and emission of 570 nm.

[8] = test system: MB-231 breast cancer cell lines; assay: DAF assay of cell membrane penetration, MB-231; details: MB-231 cell line
Method: Intracellular NO/HNO release from the derivatized NSAIDs was determined using 4-amino-5-methylamino-2′,7′-difluorofluoroescein diacetate (DAF-FM diacetate) as in Example 9.

[9] = molecular target: T1, glyceraldehyde-3-phosphate dehydrogenase (GAPDH); assay: GAPDH activity, MDA-MB-231; assay type: cell-based; design: endogenous in cells; host or cells: MDA-MB-231, MDA-MB-468, MCF-7, MCF-10A; details: MDA-MB-231, 100 μM
Method: as §2

T1 sequence (P04406 whole entry): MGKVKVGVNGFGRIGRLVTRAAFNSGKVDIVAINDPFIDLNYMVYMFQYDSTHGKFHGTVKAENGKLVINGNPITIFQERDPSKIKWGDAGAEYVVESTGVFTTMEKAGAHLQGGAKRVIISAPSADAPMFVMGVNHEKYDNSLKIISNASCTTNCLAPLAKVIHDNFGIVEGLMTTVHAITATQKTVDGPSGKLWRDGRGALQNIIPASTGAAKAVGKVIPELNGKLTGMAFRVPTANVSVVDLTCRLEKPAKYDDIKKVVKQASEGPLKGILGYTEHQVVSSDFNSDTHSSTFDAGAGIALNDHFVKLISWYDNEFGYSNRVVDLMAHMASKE

Row | Structure (SMILES) | cell penetration [1] | cell penetration ([1]; listed as 8) | IC50 [2] [µM] | Caspase-3 Activity ([3]; MDA-MB-231, 25 μM) [U/mL] | Caspase-3 Activity ([3]; MDA-MB-231, 50 μM) [U/mL] | Caspase-3 Activity ([3]; MDA-MB-231, 100 μM) [U/mL] | Caspase-3 Activity ([4]; MCF-7, 25 μM) [U/mL] | Caspase-3 Activity ([4]; MCF-7, 50 μM) [U/mL] | Caspase-3 Activity ([4]; MCF-7, 100 μM) [U/mL] | angiogenesis (tube formation) [5] | tumor size [6] | GAPDH Activity ([7]; 1 h) [U/mL] | GAPDH Activity ([7]; 3 h) [U/mL] | GAPDH Activity ([7]; 6 h) [U/mL] | cell membrane penetration [8] | GAPDH Activity ([9]; 1 h) [U/mL] | GAPDH Activity ([9]; 3 h) [U/mL] | GAPDH Activity ([9]; 6 h) [U/mL] | cell penetration ([1]; listed as 4)
1 | CCN(CC)[N+]([O-])=NOCOC(=O)c1ccccc1OC(C)=O [DEA/NO-aspirin, O^2-(Acetylsalicyloyloxymethyl)-1-(N,N-Diethylamino)-diazen-1-ium-1,2-diolate] | permeated the cell membrane with minimal decomposition | penetrate the cells | 120 | 0.25 | 0.24 | 0.31 | 0.30 | 0.35 | 0.27 | reduced angiogenesis | effective in reducing the tumor size | 0.060 | 0.065 | 0.050 | penetrated cell membranes | 0.150 | 0.160 | 0.150 | 
2 | CC(=O)Oc1ccccc1C(=O)OCON=[N+]([O-])NC(C)C [IPA/NO-aspirin, O^2-(Acetylsalicyloyloxymethyl)-1-(N-isopropylamino)-diazen-1-ium-1,2-diolate] | permeated the cell membrane with minimal decomposition |  | 90 | 0.40 | 0.48 | 0.55 | 0.30 | 0.60 | 0.58 | reduced angiogenesis | effective in reducing the tumor size | <0.010 | <0.010 | <0.010 | penetrated cell membranes | 0.120 | 0.070 | 0.050 | penetrate the cells
